Laboratory results from patent publication US20250188080A1, “IMIDAZOLONYLQUINOLINE COMPOUNDS AND THERAPEUTIC USES THEREOF” (Merck Patent GmbH, priority 2019, published 2025).

Columns and labels:
[1] = Non-sink dissolution in FaSSIF (pH 6.5); format: physicochemical; details: FaSSIF buffer solution (pH 6.5), FIG. 9
Method: Non-sink dissolution profiles for solid-state forms were acquired using shaked-flask method with excess solid material in FaSSIF medium (pH 6.5) with time-resolved sampling for determination of dissolved quantities of API.
Approx. 10-20 mg of solid sample were weighed into glass vials. 7 ml of respective medium (prewarmed to 37° C.) were added and the suspension was shaken at 450 rpm at 37° C. After 5 min, 10 min, 15 min, 30 min, 60 min, 120 min, 24 h and 48 h, […] was withdrawn and filtered through a 0.2 μm syringe filter. Clear filtrate was analysed by HPLC after suitable dilution to measure the amount of compound/form (may also be referred to as API) dissolved.
FaSSIF: 3 mM sodium taurocholate; 0.75 mM lecithin; 105.9 mM sodium chloride; 28.4 mM monobasic sodium phosphate and 8.7 mM sodium hydroxide, pH 6.5
Levels of dissolved compound/form were analysed by HPLC, with the following conditions: • Column: Chromolith RP-18e 100-3 mm • Solvent A: water/formic acid (999:1; v/v) • Solvent B: acetonitrile/formic acid (999:1; v/v) • Injection volume: 5 μL • Column temperature: 37° C. • HPLC-Gradient: […]

[2] = Dynamic vapor sorption (DVS) water uptake; format: physicochemical
Method: DCS water vapour sorption isotherms were acquired on DVS instrument with microbalance and incubator (DVS-Intrinsic, Surface Measurement Systems, SMS). Powder samples were accurately weighed into disposable Al pans and placed on the sample position of the DVS instrument. A nitrogen overall follow rate of 200 mL/min (combined dry and humid stream) was used for humidification. […] For all RH steps, an equilibrium condition of dm/dt≤0.0005 wt %/min was used, with a minimum RH step time of 10 minutes and a maximum RH step time (timeout) of 360 minutes.

Structure (SMILES)	Initial dissolution rate compared with parent Compound 1 [1]	also measured
COc1cc2ncc3c(c2cc1-c1cn(C)nc1C)n(-c1c(F)cncc1OC)c(=O)n3C.O=S(=O)(O)CCS(=O)(=O)O [Compound 1 edisylate]	faster initial dissolution rate	
COc1cc2ncc3c(c2cc1-c1cn(C)nc1C)n(-c1c(F)cncc1OC)c(=O)n3C.O=C(O)/C=C/C(=O)O [Compound 1 fumarate]	faster initial dissolution rate	Hygroscopic properties [2]: absence of hygroscopic properties
COc1cc2ncc3c(c2cc1-c1cn(C)nc1C)n(-c1c(F)cncc1OC)c(=O)n3C.O=S(=O)(O)c1ccc2ccccc2c1 [Compound 1 napsylate]	faster initial dissolution rate	
COc1cc2ncc3c(c2cc1-c1cn(C)nc1C)n(-c1c(F)cncc1OC)c(=O)n3C [Form A2]		Water adsorbed (DVS) ([2]; up to a relative humidity of 100%, 25° C.): < 2%
COc1cc2ncc3c(c2cc1-c1cn(C)nc1C)n(-c1c(F)cncc1OC)c(=O)n3C [Form A3]		Water adsorption (DVS), in words ([2]; up to a relative humidity of about 70%, 25° C.): very little water adsorption
